Measurements reported in ChEMBL document CHEMBL1133941, “Drug design, synthesis, and evaluation of a non-sugar-based selectin antagonist” (Bioorg Med Chem Lett, 2001).

Key:
[1] = Cell cytotoxicity of compound was evaluated In vitro in P-selectin mediated cell adhesion assay at a concentration of 30 uM; format: functional
[2] = target: T1, P-selectin (Homo sapiens) (UniProt P16109); test: Inhibitory activity was evaluated In vitro in Selectin P mediated cell adhesion assay at a concentration of 30uM
T1 sequence (whole entry): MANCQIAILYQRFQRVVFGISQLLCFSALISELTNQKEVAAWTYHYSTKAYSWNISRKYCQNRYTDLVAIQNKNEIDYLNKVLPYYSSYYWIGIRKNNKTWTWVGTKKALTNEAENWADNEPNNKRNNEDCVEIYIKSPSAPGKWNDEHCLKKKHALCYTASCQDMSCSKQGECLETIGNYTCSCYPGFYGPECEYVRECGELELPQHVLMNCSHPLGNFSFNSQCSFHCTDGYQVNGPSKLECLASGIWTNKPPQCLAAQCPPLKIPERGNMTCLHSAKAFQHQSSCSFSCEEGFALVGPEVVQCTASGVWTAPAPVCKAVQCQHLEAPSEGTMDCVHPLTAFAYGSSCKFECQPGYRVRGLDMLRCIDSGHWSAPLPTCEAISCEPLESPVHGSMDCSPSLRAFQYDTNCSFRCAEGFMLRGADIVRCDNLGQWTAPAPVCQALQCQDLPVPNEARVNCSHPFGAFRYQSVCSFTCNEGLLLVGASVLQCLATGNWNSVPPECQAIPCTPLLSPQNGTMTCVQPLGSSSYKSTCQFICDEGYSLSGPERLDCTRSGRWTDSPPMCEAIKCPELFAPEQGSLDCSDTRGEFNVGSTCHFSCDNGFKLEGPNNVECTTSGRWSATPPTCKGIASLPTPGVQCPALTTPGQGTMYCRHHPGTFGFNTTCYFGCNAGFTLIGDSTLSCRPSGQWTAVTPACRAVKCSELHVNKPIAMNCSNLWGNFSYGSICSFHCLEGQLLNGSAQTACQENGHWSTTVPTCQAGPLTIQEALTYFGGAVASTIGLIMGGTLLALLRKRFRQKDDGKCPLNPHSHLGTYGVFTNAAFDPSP

[3] = target: T2, P-selectin (Homo sapiens, UniProt P16109); test: Inhibitory activity of compound against Selectin P/sLex binding was determined
T2 sequence (P16109 whole entry): T1 sequence (whole entry)

| Compound | Death [1] [%] | inhibition [2] [%] | IC50 [3] [µM] |
| --- | --- | --- | --- |
| CCCCCCCCCCCCCCC(CCCCCCCCCCCCCC)CNC(=O)c1cc(CSC2OC(C)C(O)C(O)C2O)cc(C(=O)NC(CCC(=O)O)C(=O)NC)c1 (centres undefined) | 5.3 | -0.9 | – |
| CCCCCCCCCCCCCCC(CCCCCCCCCCCCCC)C(=O)N[C@@H](CO[C@@H]1O[C@@H](C)[C@@H](O)[C@H](O)[C@@H]1O)C(=O)N[C@@H](CCC(=O)O)C(=O)NC | 1.7 | 42.8 | – |
| CCCCCCCCCCCCCCC(CCCCCCCCCCCCCC)CNC(=O)c1cc(CSC2OC(C)C(O)C(O)C2O)cc(C(=O)NCCC(=O)O)c1 (centres undefined) | 2.8 | 31.3 | – |
| CCCCCCCCCCCCCCC(CCCCCCCCCCCCCC)CNC(=O)c1cc(CSC2OC(C)C(O)C(O)C2O)cc(C(=O)O)c1 (centres undefined) | 1.9 | 75.7 | 10.6 |
